Experimental data reported in paper PMC10555500, “Evaluation of the Antiproliferative Properties of CpRu Complexes Containing N-Methylated Triazaphosphaadamantane Derivatives” (Bioinorganic Chemistry and Applications, 2023).

Assays:
MDA-MB-231 cells = test: Complex uptake and subcellular distribution by ICP-MS; assay type: cell-based, human; details: MDA-MB-231, ICP-MS 106Pd
Experimental: For the cellular uptake experiments, MDA-MB-231 cells (approx. 5·10^6 cells/5 mL medium) were exposed to the complexes at their respective IC50 concentrations and in two conditions (6 h and 24 h of incubation time) and then washed with ice-cold PBS and centrifuged to obtain a cellular pellet. The cytosol, membrane/particulate, cytoskeletal, and nuclear fractions were extracted using a FractionPREP™ cell fractionation system (BioVision, USA) and performed according to the manufacturer's protocol. The Ru (^101Ru) and Pd (^106Pd) contents in different fractions were measured by using Thermo X-Series Quadrupole ICP-MS (Thermo Scientific) after the digestion of the samples. Briefly, the samples were digested with ultrapure HNO3 (65%), H2O2, and H3PO4 in a closed pressurized microwave digestion unit (Mars5, CEM) with medium-pressure HP500 vessels and then diluted in ultrapure water to obtain 2.0% (v/v) nitric acid. The instrument was tuned using a multielement ICP-MS 71C standard solution (Inorganic Venture). Indium (115In) at […] was used as the internal standard.
For the cellular uptake experiments, MDA-MB-231 cells (approx. 5·10^6 cells / 5 mL medium) were exposed to the complexes at their respective IC50 concentrations and at two conditions (6 h and 24 h of incubation time)., then washed with ice-cold PBS and centrifuged to obtain a cellular pellet.[7] […]

[1] = target: human serum albumin (HSA) (Homo sapiens, UniProt P02768); test: Binding to human serum albumin by steady-state and time-resolved Trp214 fluorescence
Experimental: (§1) The stock solutions of HSA were freshly prepared for each experiment by gently dissolving protein in PBS pH 7.4 (tablets from Fisher) for 1 hour to allow protein to completely hydrate. The concentration of the protein in the stock solutions was determined by spectrophotometry using the molar absorption coefficient at 280 nm ε280(HSA) = 36,850 M^−1·cm^−1 [38].
In each essay, all spectroscopic measurements were carried out on individually prepared samples to ensure the same preincubation time at (37.0 ± 0.1)°C, the same % of DMSO in the final samples, and the same exposure to excitation light and to avoid the need for dilution corrections. Moreover, for a direct titration protocol, a highly concentrated stock solution of the compounds in the buffer would be required, which would raise solubility issues. Dimethylsulfoxide (DMSO, from Fisher) was used to prepare concentrated stock solutions of each complex, followed by appropriate dilution to obtain the desired concentration. The DMSO content was kept at 2% (v/v) in PBS pH 7.4 in all samples. Dilutions were carried out immediately before sample preparation.
Fluorescence measurements were performed at 25.0 ± 0.1°C. The final protein concentration in the individually prepared samples (3.72 to 5 μM) was kept constant in each assay, and the complex concentration was varied to obtain desired HSA: Ru-complex molar ratios ranging from 1 : 0.25 to 1 : 10. A control sample containing the same amount of protein and final DMSO content and with no complex was also prepared for each experiment. Appropriate blank samples with no protein but with the same complex concentrations were prepared as well for background correction.
The steady-state fluorescence intensity was measured with excitation at 295 nm, and emission spectra were collected with bandwidths of 4 nm for both excitation and emission. For Stern–Volmer plots, the fluorescence intensity with emission at 340 nm was selected because it is near the maximum emission wavelength (so the sensitivity is close to maximum), but it is further to red in relation to the water Raman scattering peak. These values were corrected for the absorption and emission inner filter effects using the absorbance recorded for each sample at the excitation and emission wavelengths used for the steady-state quenching analysis. For time-resolved fluorescence measurements, the single-photon-counting technique was used with nanoLED N-280 (Horiba Jobin Yvon) as the pulsed excitation source (280 nm) and with emission collected at 350 nm (13 nm emission bandwidth), eliminating the contribution of the emission by tyrosine residues.
The experimental fluorescence intensity decays of HSA in buffer solution can be described by a sum of exponentials:(1) It=∑i=1npiexp−t/τi, where pi and τi are the pre-exponential factors and lifetime of component i, respectively. The amplitude or normalized pre-exponential of each lifetime component αi is pi/Σipi with Σiαi = 1. Fluorescence decays were analysed by an iterative deconvolution method using the TRFA Data Processor software (version 1.4; Minsk, Belarus), and the instrument response function was obtained using scattering by a colloidal suspension of silica (Ludox®, Sigma-Aldrich) diluted in water. Criteria for judging the quality of the fit were reduced χ^2 close to 1 and a random distribution of weighted residuals and residual autocorrelation.
To evaluate changes in the quantum yield by processes affecting the fluorescence lifetimes of HSA, the amplitude-weighted mean fluorescence lifetime ( τ¯ ) was calculated using the following equation:(2) τ¯=∑i=1nαiτi.
as §1, with “dissolving the” for “dissolving”, “allow the” for “allow”, “of” for “of the”, “M^−1 cm^−1.[8] […]” for “M^−1·cm^−1 [38].”

Sequence of human serum albumin (HSA) (P02768 25-609): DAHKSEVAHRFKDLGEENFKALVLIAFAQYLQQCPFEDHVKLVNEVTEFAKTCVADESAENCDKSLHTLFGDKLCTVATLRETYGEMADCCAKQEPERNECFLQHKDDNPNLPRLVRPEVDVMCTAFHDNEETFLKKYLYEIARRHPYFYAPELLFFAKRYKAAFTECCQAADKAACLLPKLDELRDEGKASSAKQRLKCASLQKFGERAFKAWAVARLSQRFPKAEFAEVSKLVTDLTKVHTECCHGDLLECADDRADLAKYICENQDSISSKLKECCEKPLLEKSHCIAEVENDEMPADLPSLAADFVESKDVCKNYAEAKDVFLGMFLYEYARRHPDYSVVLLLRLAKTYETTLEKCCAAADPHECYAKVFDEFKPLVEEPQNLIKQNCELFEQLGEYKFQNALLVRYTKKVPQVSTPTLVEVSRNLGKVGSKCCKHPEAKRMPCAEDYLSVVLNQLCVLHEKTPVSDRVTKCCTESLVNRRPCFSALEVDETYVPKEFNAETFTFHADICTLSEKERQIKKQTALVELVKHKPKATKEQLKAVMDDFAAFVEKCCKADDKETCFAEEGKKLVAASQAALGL

## CN1CN2CN(C)C[P]([Ru+2]([P](c3ccccc3)(c3ccccc3)c3ccccc3)[P](c3ccccc3)(c3ccccc3)c3ccccc3)(C1)C2.O=S(=O)([O-])C(F)(F)F.[Cl][Pd][Cl].c1cc[cH-]c1 [Compound 11, [RuCp(PPh3)2-µ-dmoPTA-1κP-2κ^2N,N′-PdCl2](CF3SO3)]
MDA-MB-231 cells
  Pd amount in the membranes: only residual
[1]; 20 µM compound (1:4 HSA:compound), 24 h, λem 340 nm
  Emission intensity of Trp214 relative to value in the absence of compound: ~40%
[1]; HSA-Trp214 fluorescence
  Type of quenching: “Dynamic” and static
[1]; PBS pH 7.4/2% DMSO, 24 h at 37°C
  Log K′B: 4.66 ± 0.07
[1]; PBS pH 7.4/2% DMSO, 24 h at 37°C, fluorescence lifetime Stern–Volmer
  K′B (conditional binding constant): 4.58 ± 0.33 × 10^4 M^−1
[1]; absorption spectra, only in the presence of HSA
  Concentration above which aggregate formation with HSA is seen: higher than 10 µM
[1]; steady-state emission, 24 h incubation
  Spectral shift of Trp214 emission: small blueshift
[1]; time-resolved fluorescence, λem 350 nm
  Effect on amplitude-weighted mean fluorescence lifetime of HSA-Trp214: decreased
